Measurements reported in patent publication US6706663B2, “Herbicidal 3-heterocyclic substituted benzisothiazole and benzisoxazole compounds” (Wyeth, priority 2000, dated 2004).

Legend:
[1] = test system: IPOHE (Ipomoea hederacea); test: Postemergence herbicidal evaluation; type: in vivo, (L.) Jacq.; settings: for IPOHE herbicidal rating: postemergence
Procedure, shortened: (§1)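 Visual 0–9 injury scores versus control plants, covering stand, vigour, malformation, size, chlorosis and general appearance, taken four to five weeks post-spray and averaged over replicate tests. Plants were sprayed at roughly two weeks old and held on greenhouse benches.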

[2] = test system: ECHORC (Echinochloa oryzoides); test: Flooded paddy, preemergence weed control; type: in vivo, Echinochloa oryzoides (Ard.) Fritsch.; settings: rated 3-4 weeks after treatment, 0-9 rating scale
Procedure, shortened: (§2)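 Seeds or propagating organs were sown in the top 0.5 cm of silt loam soil, flooded, and the water kept 1.5 to 3 cm above the soil surface throughout. Plants were grown in the greenhouse and rated visually on a 0-9 scale against a control.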

[3] = test system: SETVI (Setaria viridis); test: Postemergence herbicidal evaluation; type: in vivo, (L.) Beau; settings: for SETVI herbicidal rating: postemergence
Procedure, shortened: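 Ratings use a 0-9 visual scale covering stand, vigor, malformation, size, chlorosis and appearance versus a control, scored 4-5 weeks post-spray. Roughly two-week-old seedlings received about 0.0040-1.000 kg/ha active, applied in 50/50 acetone/water with 0.5% TWEEN 20. Multiple tests per compound were averaged.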

[4] = test system: SAGPY (Sagittaria pygmaea); test: Flooded paddy, preemergence weed control; type: in vivo, L.; settings: rated 3-4 weeks after treatment, 0-9 rating scale
Procedure, shortened: as §2

[5] = test system: CYPIR (Cyperus iria); test: Flooded paddy, preemergence weed control; type: in vivo; settings: rated 3-4 weeks after treatment, 0-9 rating scale
Procedure, shortened: as §2

[6] = test system: ZEAMX (Corn, Field); test: Postemergence herbicidal evaluation; type: in vivo, Zea mays, L.; settings: for ZEAMX herbicidal rating: postemergence
Procedure, shortened: as §1

[7] = test system: GALAP (Galium aparine); test: Postemergence herbicidal evaluation; type: in vivo; settings: for GALAP herbicidal rating: postemergence
Procedure, shortened: as §1

[8] = test system: SETVI (Setaria viridis); test: Preemergence herbicidal evaluation; type: in vivo, (L.) Beau; settings: rated 4-5 weeks after treatment
Procedure, shortened: (§3)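 Visual 0-9 rating versus untreated control, taken four to five weeks post-treatment, scoring stand, vigor, malformation, size, chlorosis and overall appearance. Compound applied as aqueous acetone spray to freshly seeded soil cups, then kept under standard greenhouse care.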

[9] = test system: ECHCG (Echinochloa crus-galli); test: Preemergence herbicidal evaluation; type: in vivo, (L.) Beau; settings: rated 4-5 weeks after treatment
Procedure, shortened: as §3

[10] = test system: ABUTH (Abutilon theophrasti); test: Postemergence herbicidal evaluation; type: in vivo, Medic.; settings: for ABUTH herbicidal rating: postemergence
Procedure, shortened: as §1

[11] = test system: IPOHE (Ipomoea hederacea); test: Preemergence herbicidal evaluation; type: in vivo, (L.) Jacq.; settings: rated 4-5 weeks after treatment
[12] = test system: AMBEL (Ambrosia artemisifolia); test: Preemergence herbicidal evaluation; type: in vivo, L.; settings: rated 4-5 weeks after treatment
Procedure, shortened: as §3

[13] = test system: CHEAL (Chenopodium album); test: Preemergence herbicidal evaluation; type: in vivo, L.; settings: rated 4-5 weeks after treatment
Procedure, shortened: as §3

[14] = test system: CASOB (Cassia obtusifolia); test: Preemergence herbicidal evaluation; type: in vivo, L.; settings: rated 4-5 weeks after treatment
Procedure, shortened: as §3

[15] = test system: ECHCG (Echinochloa crus-galli); test: Postemergence herbicidal evaluation; type: in vivo, (L.) Beau; settings: for ECHCG herbicidal rating: postemergence
Procedure, shortened: as §1

[16] = test system: ORYSAT (Rice, Tebonnet); test: Postemergence herbicidal evaluation; type: in vivo, Oryza sativa, (L.) Tebonnet; settings: for ORYSAT herbicidal rating: postemergence
Procedure, shortened: as §1

[17] = test system: MOOVA (Monochoria vaginalis); test: Flooded paddy, preemergence weed control; type: in vivo, Presl.; settings: rated 3-4 weeks after treatment, 0-9 rating scale
Procedure, shortened: as §2

[18] = test system: ORYSAT (Rice, Tebonnet); test: Preemergence herbicidal evaluation; type: in vivo, Oryza sativa, (L.) Tebonnet; settings: rated 4-5 weeks after treatment
[19] = test system: ORYSAT (Rice, Tebonnet); test: Flooded paddy, post-transplant rice tolerance; type: in vivo, Oryza sativa, (L.) Tebonnet; settings: flooded paddy, post-transplant rice, rated 3-4 weeks after treatment, 0-9 rating scale
Procedure, shortened: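 Visual 0–9 injury rating against a control, covering stand, vigor, malformation, size, chlorosis and overall appearance. Treatment was post-transplant onto flooded containers (water 1.5–3 cm deep, silt loam) holding two ten-day-old cv. Tebonnet seedlings, maintained on greenhouse benches.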

[20] = test system: GLXMAW (Soybean, Williams); test: Postemergence herbicidal evaluation; type: in vivo, Glycine max, (L.) Merr. cv Williams; settings: for GLXMAW herbicidal rating: postemergence
Procedure, shortened: as §1

SMILES: C=CC1COC(c2nsc3ccc(-n4c(=O)cc(C(F)(F)F)n(C)c4=O)cc23)O1 (centres unmarked) [Compound 76, 1-methyl-6-(trifluoromethyl)-3-[3-(4-vinyl-1,3-dioxolan-2-yl)-1,2-benzisothiazol-5-yl]uracil]
- IPOHE herbicidal rating ([1]; rate 0.0320 kg/ha): 7.0
- IPOHE herbicidal rating ([1]; rate 0.0620 kg/ha): 9.0
- herbicidal rating, ECHORC ([2]; rate 0.0080 kg/ha): 5.0
- herbicidal rating, ECHORC ([2]; rate 0.0320 kg/ha): 7.0
- herbicidal rating, ECHORC ([2]; rate 0.1250 kg/ha): 9.0
- SETVI herbicidal rating ([3]; rate 0.0320 kg/ha): 7.0
- SETVI herbicidal rating ([3]; rate 0.0620 kg/ha): 9.0
- herbicidal rating, SAGPY ([4]; rate 0.0080 kg/ha): 0.0
- herbicidal rating, SAGPY ([4]; rate 0.0320 kg/ha): 0.0
- herbicidal rating, SAGPY ([4]; rate 0.1250 kg/ha): 9.0
- herbicidal rating, CYPIR ([5]; rate 0.0080 kg/ha): 7.0
- herbicidal rating, CYPIR ([5]; rate 0.0320 kg/ha): 8.0
- herbicidal rating, CYPIR ([5]; rate 0.1250 kg/ha): 9.0
- ZEAMX herbicidal rating ([6]; rate 0.0320 kg/ha): 3.5
- ZEAMX herbicidal rating ([6]; rate 0.0620 kg/ha): 4.5
- GALAP herbicidal rating ([7]; rate 0.0320 kg/ha): 5.0
- GALAP herbicidal rating ([7]; rate 0.0620 kg/ha): 7.0
- Preemergence herbicidal rating SETVI ([8]; Rate 0.0620 kg/ha): 9.0
- Preemergence herbicidal rating SETVI ([8]; Rate 0.1250 kg/ha): 9.0
- Preemergence herbicidal rating SETVI ([8]; Rate 0.2500 kg/ha): 9.0
- Preemergence herbicidal rating ECHCG ([9]; Rate 0.0620 kg/ha): 9.0
- Preemergence herbicidal rating ECHCG ([9]; Rate 0.1250 kg/ha): 9.0
- Preemergence herbicidal rating ECHCG ([9]; Rate 0.2500 kg/ha): 9.0
- ABUTH herbicidal rating ([10]; rate 0.0320 kg/ha): 9.0
- ABUTH herbicidal rating ([10]; rate 0.0620 kg/ha): 9.0
- Preemergence herbicidal rating IPOHE ([11]; Rate 0.0620 kg/ha): 7.5
- Preemergence herbicidal rating IPOHE ([11]; Rate 0.1250 kg/ha): 9.0
- Preemergence herbicidal rating IPOHE ([11]; Rate 0.2500 kg/ha): 9.0
- Preemergence herbicidal rating AMBEL ([12]; Rate 0.0620 kg/ha): 9.0
- Preemergence herbicidal rating AMBEL ([12]; Rate 0.1250 kg/ha): 9.0
- Preemergence herbicidal rating AMBEL ([12]; Rate 0.2500 kg/ha): 9.0
- Preemergence herbicidal rating CHEAL ([13]; Rate 0.0620 kg/ha): 9.0
- Preemergence herbicidal rating CHEAL ([13]; Rate 0.1250 kg/ha): 9.0
- Preemergence herbicidal rating CHEAL ([13]; Rate 0.2500 kg/ha): 9.0
- Preemergence herbicidal rating CASOB ([14]; Rate 0.0620 kg/ha): 5.0
- Preemergence herbicidal rating CASOB ([14]; Rate 0.1250 kg/ha): 8.5
- Preemergence herbicidal rating CASOB ([14]; Rate 0.2500 kg/ha): 9.0
- ECHCG herbicidal rating ([15]; rate 0.0320 kg/ha): 0.0
- ECHCG herbicidal rating ([15]; rate 0.0620 kg/ha): 3.0
- ORYSAT herbicidal rating ([16]; rate 0.0320 kg/ha): 3.5
- ORYSAT herbicidal rating ([16]; rate 0.0620 kg/ha): 4.0
- herbicidal rating, MOOVA ([17]; rate 0.0080 kg/ha): 9.0
- herbicidal rating, MOOVA ([17]; rate 0.0320 kg/ha): 9.0
- herbicidal rating, MOOVA ([17]; rate 0.1250 kg/ha): 9.0
- Preemergence herbicidal rating ORYSAT ([18]; Rate 0.0620 kg/ha): 7.0
- Preemergence herbicidal rating ORYSAT ([18]; Rate 0.1250 kg/ha): 8.5
- Preemergence herbicidal rating ORYSAT ([18]; Rate 0.2500 kg/ha): 9.0
- herbicidal rating, ORYSAT (rice tolerance) ([19]; rate 0.0080 kg/ha): 2.0
- herbicidal rating, ORYSAT (rice tolerance) ([19]; rate 0.0320 kg/ha): 3.0
- herbicidal rating, ORYSAT (rice tolerance) ([19]; rate 0.1250 kg/ha): 9.0
- GLXMAW herbicidal rating ([20]; rate 0.0320 kg/ha): 7.0
- GLXMAW herbicidal rating ([20]; rate 0.0620 kg/ha): 8.0

SMILES: CC(=O)N1CCSC1c1nsc2ccc(-n3c(=O)cc(C(F)(F)F)n(C)c3=O)cc12 (centres unmarked) [Compound 29, 3-acetyl-2-[5-[3,6-dihydro-3-methyl-2,6-dioxo-4-(trifluoromethyl)-1(2H)-pyrimidinyl]-1,2-benzisothiazol-3-yl]thiazolidine]
- Postemergence herbicidal rating, IPOHE ([1]; rate 0.0320 kg/ha): 9.0
- Postemergence herbicidal rating, IPOHE ([1]; rate 0.0620 kg/ha): 9.0
- herbicidal rating, ECHORC ([2]; rate 0.0080 kg/ha): 0.0
- herbicidal rating, ECHORC ([2]; rate 0.0320 kg/ha): 7.0
- herbicidal rating, ECHORC ([2]; rate 0.1250 kg/ha): 9.0
- Postemergence herbicidal rating, SETVI ([3]; rate 0.0320 kg/ha): 0.0
- Postemergence herbicidal rating, SETVI ([3]; rate 0.0620 kg/ha): 5.0
- herbicidal rating, SAGPY ([4]; rate 0.0080 kg/ha): 0.0
- herbicidal rating, SAGPY ([4]; rate 0.0320 kg/ha): 3.5
- herbicidal rating, SAGPY ([4]; rate 0.1250 kg/ha): 9.0
- herbicidal rating, CYPIR ([5]; rate 0.0080 kg/ha): 0.0
- herbicidal rating, CYPIR ([5]; rate 0.0320 kg/ha): 7.0
- herbicidal rating, CYPIR ([5]; rate 0.1250 kg/ha): 9.0
- Postemergence herbicidal rating, ZEAMX ([6]; rate 0.0320 kg/ha): 6.0
- Postemergence herbicidal rating, ZEAMX ([6]; rate 0.0620 kg/ha): 6.0
- Postemergence herbicidal rating, GALAP ([7]; rate 0.0320 kg/ha): 4.0
- Postemergence herbicidal rating, GALAP ([7]; rate 0.0620 kg/ha): 6.0
- SETVI preemergence herbicidal rating ([8]; Rate 0.0620 kg/ha): 6.5
- SETVI preemergence herbicidal rating ([8]; Rate 0.1250 kg/ha): 7.5
- SETVI preemergence herbicidal rating ([8]; Rate 0.2500 kg/ha): 9.0
- ECHCG preemergence herbicidal rating ([9]; Rate 0.0620 kg/ha): 5.5
- ECHCG preemergence herbicidal rating ([9]; Rate 0.1250 kg/ha): 6.5
- ECHCG preemergence herbicidal rating ([9]; Rate 0.2500 kg/ha): 8.0
- Postemergence herbicidal rating, ABUTH ([10]; rate 0.0320 kg/ha): 9.0
- Postemergence herbicidal rating, ABUTH ([10]; rate 0.0620 kg/ha): 9.0
- IPOHE preemergence herbicidal rating ([11]; Rate 0.0620 kg/ha): 5.0
- IPOHE preemergence herbicidal rating ([11]; Rate 0.1250 kg/ha): 7.5
- IPOHE preemergence herbicidal rating ([11]; Rate 0.2500 kg/ha): 9.0
- AMBEL preemergence herbicidal rating ([12]; Rate 0.0620 kg/ha): 7.0
- AMBEL preemergence herbicidal rating ([12]; Rate 0.1250 kg/ha): 8.0
- AMBEL preemergence herbicidal rating ([12]; Rate 0.2500 kg/ha): 9.0
- CHEAL preemergence herbicidal rating ([13]; Rate 0.0620 kg/ha): 9.0
- CHEAL preemergence herbicidal rating ([13]; Rate 0.1250 kg/ha): 9.0
- CHEAL preemergence herbicidal rating ([13]; Rate 0.2500 kg/ha): 9.0
- CASOB preemergence herbicidal rating ([14]; Rate 0.0620 kg/ha): 3.5
- CASOB preemergence herbicidal rating ([14]; Rate 0.1250 kg/ha): 6.5
- CASOB preemergence herbicidal rating ([14]; Rate 0.2500 kg/ha): 8.0
- Postemergence herbicidal rating, ECHCG ([15]; rate 0.0320 kg/ha): 0.0
- Postemergence herbicidal rating, ECHCG ([15]; rate 0.0620 kg/ha): 2.0
- Postemergence herbicidal rating, ORYSAT ([16]; rate 0.0320 kg/ha): 3.0
- Postemergence herbicidal rating, ORYSAT ([16]; rate 0.0620 kg/ha): 3.0
- herbicidal rating, MOOVA ([17]; rate 0.0080 kg/ha): 0.0
- herbicidal rating, MOOVA ([17]; rate 0.0320 kg/ha): 9.0
- herbicidal rating, MOOVA ([17]; rate 0.1250 kg/ha): 9.0
- ORYSAT preemergence herbicidal rating ([18]; Rate 0.0620 kg/ha): 4.0
- ORYSAT preemergence herbicidal rating ([18]; Rate 0.1250 kg/ha): 5.0
- ORYSAT preemergence herbicidal rating ([18]; Rate 0.2500 kg/ha): 6.5
- herbicidal rating, ORYSAT (rice tolerance) ([19]; rate 0.0080 kg/ha): 0.0
- herbicidal rating, ORYSAT (rice tolerance) ([19]; rate 0.0320 kg/ha): 3.5
- herbicidal rating, ORYSAT (rice tolerance) ([19]; rate 0.1250 kg/ha): 7.0
- Postemergence herbicidal rating, GLXMAW ([20]; rate 0.0320 kg/ha): 7.5
- Postemergence herbicidal rating, GLXMAW ([20]; rate 0.0620 kg/ha): 8.0
